From patent US20230348424A1, “HETEROCYCLIC COMPOUNDS AND METHODS OF USE” (Schrödinger, Inc., priority 2022, published 2023)

What follows are molecules tested against SOS1:KRAS (G12C) interaction (Homo sapiens (Human), UniProt Q07889) (assay: SOS1 KRas(G12C) FRET Assay). Conditions: 0.5 nM His10-SOS1 (res. 564-1049), 2.5 nM GST-KRAS G12C (res. 1-169), 2 hrs at RT.
Type: binding
Experimental: Inhibition of the SOS 1:KRAS interaction was measured using purified GST-tagged KRAS (res. 1-169, G12C, purified based on Hillig, et al., Proc Natl Acad Sci USA (2019); 116(7):2551-2560) and recombinant His10-SOS1 (res. 564-1049; purified based on Hillig, et al.). The final assay was performed at 20 uL with 0.5 nM SOS1 protein and 2.5 nM KRAS protein in a buffer of PBS, 0.1% BSA, 5 mM MgCh, 0.0025% Igepal, 100 mM KF, 5 mM DTT in a white 384 square well OptiPlate (PerkinElmer, Cat. 6007290). A 2x KRAS working solution was prepared in an assay buffer containing 5 nM GST-KRAS G12C and 2 nM anti-GST-Eu(K) (Cisbio, Cat. 61GSTKLA) and pre-incubated for 15 minutes at 25° C. […] The final DMSO concentration is 0.5%. Plates were incubated at RT for 2 hrs before the FRET signal was measured using Envision at emission 665 nm and 615 nm. FRET signal was converted to percentage of protein-protein interaction using the following equation:
• C: signal with compound treatment • P: signal for positive control (DMSO) • N: signal for negative control (no SOS1 added)
IC50 and Hill coefficients were obtained using Graph Pad Prism (Graph Pad software, Inc, USA) with non-linear regression analysis.

Sequence of SOS1:KRAS (G12C) interaction (Q07889 564-1049, stated change not applied): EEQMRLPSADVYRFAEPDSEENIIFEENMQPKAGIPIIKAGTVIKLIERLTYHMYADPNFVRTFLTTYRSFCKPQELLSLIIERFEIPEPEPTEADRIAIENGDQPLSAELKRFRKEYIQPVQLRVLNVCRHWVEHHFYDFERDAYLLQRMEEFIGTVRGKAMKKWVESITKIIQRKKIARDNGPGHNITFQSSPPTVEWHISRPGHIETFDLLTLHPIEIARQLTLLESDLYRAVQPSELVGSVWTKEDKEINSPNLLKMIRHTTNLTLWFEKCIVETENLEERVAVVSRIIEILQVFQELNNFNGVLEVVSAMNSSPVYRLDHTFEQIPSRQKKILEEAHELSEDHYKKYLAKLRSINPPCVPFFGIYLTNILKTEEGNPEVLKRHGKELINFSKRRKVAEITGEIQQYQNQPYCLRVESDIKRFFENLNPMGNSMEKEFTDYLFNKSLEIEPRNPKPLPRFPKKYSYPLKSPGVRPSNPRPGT

IC50 [nM] | SMILES
252 | Cc1c([C@@H](C)NC(=O)c2cn(C3CCOCC3)c(=O)cc2N[C@H]2CC[C@@]23CCCN(C)C3)cccc1C(F)(F)F (single isomer, unassigned) [Example 296]
33.4 | Cc1c([C@@H](C)NC(=O)c2cn(C3CCOCC3)c(=O)cc2N[C@@H]2CC[C@]23CCCN(C)C3)cccc1C(F)(F)F (single isomer, unassigned) [Example 297]
88.1 | Cc1c([C@@H](C)NC(=O)c2cn(C3CCOCC3)c(=O)cc2N[C@H]2CC[C@]23CCCN(C)C3)cccc1C(F)(F)F (single isomer, unassigned) [Example 298]
51.3 | Cc1c([C@@H](C)NC(=O)c2cn(C3CCOCC3)c(=O)cc2N[C@@H]2CC[C@@]23CCCN(C)C3)cccc1C(F)(F)F (single isomer, unassigned) [Example 299]
27.4 | Cc1c([C@@H](C)NC(=O)c2cn(C3CCOCC3)c(=O)cc2NC2CCN(C)CC2)cccc1C(F)(F)F [Example 1, (R)-N-(I-(2-methyl-3-(trifluoromethyl)phenyl)ethyl)-4-((I-methylpiperidin-4-yl)amino)-6-oxo-1-(tetrahydro-2H-pyran-4-yl)-1,6-dihydropyridine-3-carboxamide]
37.6 | Cc1c([C@@H](C)NC(=O)c2cn(C3CCOCC3)c(=O)cc2NCC23CCCN2CCC3)cccc1C(F)(F)F [Example 11, (R)-N-(1-(2-methyl-3-(trifluoromethyl)phenyl)ethyl)-6-oxo-4-(((tetrahydro-1H-pyrrolizin-7a(5H)-yl)methyl)amino)-1-(tetrahydro-2H-pyran-4-yl)-1,6-dihydropyridine-3-carboxamide]
847 | Cc1c([C@@H](C)NC(=O)c2cn(C3CCOCC3)c(=O)cc2NC2CCN(CC(F)(F)F)CC2)cccc1C(F)(F)F [Example 15, (R)-N-(1-(2-methyl-3-(trifluoromethyl)phenyl)ethyl)-6-oxo-1-(tetrahydro-2H-pyran-4-yl)-4-((1-(2,2,2-trifluoroethyl)piperidin-4-yl)amino)-1,6-dihydropyridine-3-carboxamide]
21.8 | Cc1c([C@@H](C)NC(=O)c2cn(C3CCOCC3)c(=O)cc2N[C@H]2C[C@@H](N(C)C)C2)cccc1C(F)(F)F [Example 27]
59.2 | Cc1c([C@@H](C)NC(=O)c2cn(C3CCOCC3)c(=O)cc2NC2CN(C)C2)cccc1C(F)(F)F [Example 28, (R)-N-(1-(2-methyl-3-(trifluoromethyl)phenyl)ethyl)-4-((1-methylazetidin-3-yl)amino)-6-oxo-1-(tetrahydro-2H-pyran-4-yl)-1,6-dihydropyridine-3-carboxamide]
36.3 | Cc1c([C@@H](C)NC(=O)c2cn(C3CCOCC3)c(=O)cc2NCC2(F)CN(C)C2)cccc1C(F)(F)F [Example 30, (R)-4-(((3-fluoro-1-methylazetidin-3-yl)methyl)amino)-N-(1-(2-methyl-3-(trifluoromethyl)phenyl)ethyl)-6-oxo-1-(tetrahydro-2H-pyran-4-yl)-1,6-dihydropyridine-3-carboxamide]
44 | Cc1c([C@@H](C)NC(=O)c2cn(C3CCOCC3)c(=O)cc2N[C@H]2CCCCN(C)C2)cccc1C(F)(F)F [Example 35, N-((R)-1-(2-methyl-3-(trifluoromethyl)phenyl)ethyl)-4-(((S)-1-methylazepan-3-yl)amino)-6-oxo-1-(tetrahydro-2H-pyran-4-yl)-1,6-dihydropyridine-3-carboxamide]
30.8 | Cc1c([C@@H](C)NC(=O)c2cn(C3CCOCC3)c(=O)cc2N[C@@H]2CCCCN(C)C2)cccc1C(F)(F)F [Example 36, N-((R)-1-(2-methyl-3-(trifluoromethyl)phenyl)ethyl)-4-(((R)-1-methylazepan-3-yl)amino)-6-oxo-1-(tetrahydro-2H-pyran-4-yl)-1,6-dihydropyridine-3-carboxamide]
75.7 | Cc1c([C@@H](C)NC(=O)c2cn(C3CCOCC3)c(=O)cc2NC2CNC2)cccc1C(F)(F)F [Example 43, (R)-4-(azetidin-3-ylamino)-N-(1-(2-methyl-3-(trifluoromethyl)phenyl)ethyl)-6-oxo-1-(tetrahydro-2H-pyran-4-yl)-1,6-dihydropyridine-3-carboxamide]
34.6 | Cc1c([C@@H](C)NC(=O)c2cn(C3CCOCC3)c(=O)cc2NC2CCNC2)cccc1C(F)(F)F (stereo partly drawn) [Example 44, N-((R)-1-(2-methyl-3-(trifluoromethyl)phenyl)ethyl)-6-oxo-4-(pyrrolidin-3-ylamino)-1-(tetrahydro-2H-pyran-4-yl)-1,6-dihydropyridine-3-carboxamide]
18.2 | Cc1c([C@@H](C)NC(=O)c2cn(C3CCOCC3)c(=O)cc2NCCONC(=N)N)cccc1C(F)(F)F [Example 46, (R)-4-((2-(guanidinooxy)ethyl)amino)-N-(1-(2-methyl-3-(trifluoromethyl)phenyl)ethyl)-6-oxo-1-(tetrahydro-2H-pyran-4-yl)-1,6-dihydropyridine-3-carboxamide]

Further lines, the molecule ahead of its results:

SMILES | IC50 [nM]
C[C@@H](NC(=O)c1cn(C2(C(F)F)CC2)c(=O)cc1N[C@H]1CCNC2(CC2)C1)c1cccc(C(F)F)c1F (single isomer, unassigned) [Example 277] | 9.46
C[C@@H](NC(=O)c1cn(C2(C(F)F)CC2)c(=O)cc1N[C@@H]1CCNC2(CC2)C1)c1cccc(C(F)F)c1F (single isomer, unassigned) [Example 278] | 24.1
C[C@@H](NC(=O)c1cn(C2(C(F)F)CC2)c(=O)cc1N[C@H]1[C@@H]2CC[C@H]1CNC2)c1cccc(C(F)F)c1F (single isomer, unassigned) [Example 280] | 15.8
C[C@@H](NC(=O)c1cn(C2(C(F)F)CC2)c(=O)cc1N[C@@H]1[C@@H]2CC[C@H]1CNC2)c1cccc(C(F)F)c1F (single isomer, unassigned) [Example 281] | 18.4
C[C@@H](NC(=O)c1cn(C2(C(F)F)CC2)c(=O)cc1N[C@@H]1CCN2CCC[C@H]2C1)c1cccc(C(F)F)c1F (single isomer, unassigned) [Example 303] | 18.2
C[C@@H](NC(=O)c1cn(C2(C(F)F)CC2)c(=O)cc1N[C@H]1CCN2CCC[C@@H]2C1)c1cccc(C(F)F)c1F (single isomer, unassigned) [Example 304] | 25.7
C[C@@H](NC(=O)c1cn(C2(C(F)F)CC2)c(=O)cc1N[C@H]1CCN2CCC[C@H]2C1)c1cccc(C(F)F)c1F (single isomer, unassigned) [Example 305] | 23.3
C[C@@H](NC(=O)c1cn(C2(C(F)F)CC2)c(=O)cc1N[C@@H]1CCN2CCC[C@@H]2C1)c1cccc(C(F)F)c1F (single isomer, unassigned) [Example 306] | 41.7
C[C@@H](NC(=O)c1cn([C@@H]2CCOC(C)(C)C2)c(=O)cc1NC1CCN(C)CC1)c1cccc(C(F)F)c1F (single isomer, unassigned) [Example 307] | 4.9
C[C@@H](NC(=O)c1cn([C@H]2CCOC(C)(C)C2)c(=O)cc1NC1CCN(C)CC1)c1cccc(C(F)F)c1F (single isomer, unassigned) [Example 308] | 17.9
C[C@@H](NC(=O)c1cn(C2(C(F)F)CC2)c(=O)cc1N[C@H]1CCN(C)C2(CC2)C1)c1cccc(C(F)F)c1F (single isomer, unassigned) [Example 311] | 9.7
C[C@@H](NC(=O)c1cn(C2(C(F)F)CC2)c(=O)cc1N[C@@H]1CCN(C)C2(CC2)C1)c1cccc(C(F)F)c1F (single isomer, unassigned) [Example 312] | 35.6
Cc1c([C@@H](C)NC(=O)c2cn(C3CCOCC3)c(=O)c(Br)c2NC2CCN(C)CC2)cccc1C(F)(F)F [Example 17, (R)-5-bromo-N-(1-(2-methyl-3-(trifluoromethyl)phenyl)ethyl)-4-((1-methylpiperidin-4-yl)amino)-6-oxo-1-(tetrahydro-2H-pyran-4-yl)-1,6-dihydropyridine-3-carboxamide] | 717
COc1c(NC2CCN(C)CC2)c(C(=O)N[C@H](C)c2cccc(C(F)(F)F)c2C)cn(C2CCOCC2)c1=O [Example 18, (R)-5-methoxy-N-(1-(2-methyl-3-(trifluoromethyl)phenyl)ethyl)-4-((1-methylpiperidin-4-yl)amino)-6-oxo-1-(tetrahydro-2H-pyran-4-yl)-1,6-dihydropyridine-3-carboxamide] | 77.8
Cc1c([C@@H](C)NC(=O)c2cn(C3CCOCC3)c(=O)c(C)c2NC2CCN(C)CC2)cccc1C(F)(F)F [Example 19, (R)-5-methyl-N-(1-(2-methyl-3-(trifluoromethyl)phenyl)ethyl)-4-((1-methylpiperidin-4-yl)amino)-6-oxo-1-(tetrahydro-2H-pyran-4-yl)-1,6-dihydropyridine-3-carboxamide] | 347
C[C@@H](NC(=O)c1cn(C2CCOCC2)c(=O)cc1NC1CCN(C)CC1)c1cccc(C(F)F)c1F [Example 41, (R)-N-(1-(3-(difluoromethyl)-2-fluorophenyl)ethyl)-4-((1-methylpiperidin-4-yl)amino)-6-oxo-1-(tetrahydro-2H-pyran-4-yl)-1,6-dihydropyridine-3-carboxamide] | 7.8
